Data from ChEMBL document CHEMBL1201862, “PubChem BioAssay data set” (2004).
Calls of active or inactive are those of the source. Rule as the data show it, for most assays here: actives have a measured EC50 and inactives only a lower limit.

Experiments:
[1] = target: T1, RNA-binding protein pos-1 (Caenorhabditis elegans, UniProt G5EF15); experiment: inhibitors of POS-1/mex-3 RNA binding, dose response, biochemical, fluorescence polarization (AID 1964);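 also: purified POS-1 fused to maltose binding protein made in E. coli; potency of compounds blocking POS-1 binding to fluorescent RNA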
T1 sequence (G5EF15 whole entry): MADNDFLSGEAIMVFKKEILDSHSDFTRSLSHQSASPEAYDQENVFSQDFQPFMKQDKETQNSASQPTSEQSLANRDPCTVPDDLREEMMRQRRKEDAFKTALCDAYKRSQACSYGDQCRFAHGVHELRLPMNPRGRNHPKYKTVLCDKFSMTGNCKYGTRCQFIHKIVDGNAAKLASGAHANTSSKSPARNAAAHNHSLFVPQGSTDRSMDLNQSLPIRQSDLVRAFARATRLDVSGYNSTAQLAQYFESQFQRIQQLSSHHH

[2] = target: T2, Zinc finger protein mex-5 (Caenorhabditis elegans, UniProt Q9XUB2); experiment: MEX-5/TCR-2 RNA interaction inhibitors, dose response, biochemical, C. elegans, fluorescence polarization (AID 1960)
T2 sequence (Q9XUB2 whole entry): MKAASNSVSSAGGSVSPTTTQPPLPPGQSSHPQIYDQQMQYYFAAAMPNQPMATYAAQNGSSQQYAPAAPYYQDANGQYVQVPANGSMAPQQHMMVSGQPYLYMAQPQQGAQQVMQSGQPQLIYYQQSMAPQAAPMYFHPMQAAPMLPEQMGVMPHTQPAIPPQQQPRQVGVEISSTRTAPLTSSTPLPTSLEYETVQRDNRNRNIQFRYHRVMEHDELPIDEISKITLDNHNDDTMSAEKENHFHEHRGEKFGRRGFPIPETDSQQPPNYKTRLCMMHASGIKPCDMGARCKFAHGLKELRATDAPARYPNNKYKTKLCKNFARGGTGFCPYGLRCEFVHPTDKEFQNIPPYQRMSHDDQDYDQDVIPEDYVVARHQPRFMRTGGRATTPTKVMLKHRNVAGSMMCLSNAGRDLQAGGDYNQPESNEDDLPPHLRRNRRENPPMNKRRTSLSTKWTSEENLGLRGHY

Protein skinhead-1 = target: T3, Protein skinhead-1 (Caenorhabditis elegans, UniProt P34707); type: functional
T3 sequence (P34707 whole entry): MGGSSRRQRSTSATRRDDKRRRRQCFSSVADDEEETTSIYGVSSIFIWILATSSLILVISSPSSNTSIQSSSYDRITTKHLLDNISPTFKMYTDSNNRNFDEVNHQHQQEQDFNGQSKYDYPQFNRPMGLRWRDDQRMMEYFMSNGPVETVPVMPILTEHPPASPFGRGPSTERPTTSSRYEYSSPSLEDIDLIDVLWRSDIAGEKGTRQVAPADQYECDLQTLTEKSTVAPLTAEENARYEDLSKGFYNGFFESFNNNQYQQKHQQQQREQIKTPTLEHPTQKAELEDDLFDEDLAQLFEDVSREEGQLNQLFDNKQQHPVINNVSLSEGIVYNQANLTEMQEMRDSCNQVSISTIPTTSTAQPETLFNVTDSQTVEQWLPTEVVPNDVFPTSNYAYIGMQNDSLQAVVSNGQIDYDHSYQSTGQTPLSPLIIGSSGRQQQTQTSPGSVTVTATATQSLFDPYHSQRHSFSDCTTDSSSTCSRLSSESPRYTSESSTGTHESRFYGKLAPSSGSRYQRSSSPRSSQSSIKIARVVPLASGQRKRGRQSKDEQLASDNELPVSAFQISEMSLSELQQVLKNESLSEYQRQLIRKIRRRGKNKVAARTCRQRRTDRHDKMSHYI

[3] = inhibitors of intracellular T. cruzi replication, confirmation, NIH3T3 host cells, beta-gal luminescence (AID 2044); type: functional, cell-based;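 also: intracellular parasites grown in NIH/3T3 mouse fibroblasts as host cells; luminescent beta-galactosidase reporter signal from transgenic T. cruzi replicating inside host cells; inhibitors lower the luminescence signal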
[4] = cytotoxicity toward NIH3T3 fibroblasts, dose response, counter-screen, cell-based, ATP luminescence, mouse fibroblasts (AID 2010); type: functional;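 also: cells exposed to compound for about 90 hours before reading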
[5] = target: T4, Carboxy-terminal domain RNA polymerase II polypeptide A small phosphatase 1 (Homo sapiens, UniProt Q9GZU7); experiment: inhibitors of CTDSP1, concentration-response testing, biochemical assay, absorbance-based, actives from ultra-high-throughput screening (AID 540297); type: functional
T4 sequence (Q9GZU7 whole entry): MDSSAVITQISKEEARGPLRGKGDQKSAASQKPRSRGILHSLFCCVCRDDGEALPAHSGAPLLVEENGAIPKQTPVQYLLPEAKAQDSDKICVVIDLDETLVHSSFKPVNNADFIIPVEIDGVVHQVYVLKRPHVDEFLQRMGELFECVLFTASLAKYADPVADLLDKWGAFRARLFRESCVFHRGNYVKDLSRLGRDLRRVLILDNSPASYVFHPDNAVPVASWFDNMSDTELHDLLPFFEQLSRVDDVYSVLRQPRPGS

[6] = Luminescence Cell-Based Dose Response HTS to Identify Activators of Luciferase Translation or Activity in H4 […] Cells. [Related pubchem assays: 1829 (Project Summary), 1814 (Primary HTS)]; type: functional
[7] = Luminescence Cell-Based Dose Confirmation HTS to Identify Activators of 5'UTR Stem-Loop Driven Alpha-Synuclein mRNA Translation in H4 Neuroglioblastoma Cells. [Related pubchem assays: 1829 (Project Summary), 1814 (Primary HTS)]; type: functional
H4 = experiment: Luminescence Cell-Based Dose Response HTS to Identify Activators of 5'UTR Stem-Loop Driven Prion Protein mRNA Translation in H4 Neuroglioblastoma Cells. [Related pubchem assays: 1829 (Project Summary), 1814 (Primary HTS)]; type: functional; conditions: Homo sapiens
[8] = target: T5, Polyadenylate-binding protein 1 (Homo sapiens, UniProt P11940); experiment: PABP1 MLLE–PAM2 binding inhibitor potency, dose response, biochemical, fluorescence polarization, FITC-PAM2 peptide (AID 602259); type: functional; conditions: read-out: IC50_Mean
[9] = target: T6, Corticotropin-releasing factor receptor 2/Corticotropin-releasing factor-binding protein (Homo sapiens, UniProt P24387+Q13324); experiment: activators of CRF receptor 2 with binding protein – uHTS hits, confirmation (AID 602473); type: functional; conditions: read-out: EC50_Mean
T6 sequence (Q13324 whole entry): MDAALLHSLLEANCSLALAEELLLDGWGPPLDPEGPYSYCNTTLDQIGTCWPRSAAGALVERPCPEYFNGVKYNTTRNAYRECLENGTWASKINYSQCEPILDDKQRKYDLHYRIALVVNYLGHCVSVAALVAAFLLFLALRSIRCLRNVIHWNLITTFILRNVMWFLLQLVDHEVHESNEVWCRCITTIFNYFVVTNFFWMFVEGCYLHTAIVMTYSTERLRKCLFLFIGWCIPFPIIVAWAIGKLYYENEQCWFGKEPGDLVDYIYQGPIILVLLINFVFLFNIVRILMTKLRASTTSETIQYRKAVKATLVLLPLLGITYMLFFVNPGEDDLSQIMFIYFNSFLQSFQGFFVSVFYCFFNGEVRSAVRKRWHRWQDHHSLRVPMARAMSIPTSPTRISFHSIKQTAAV
T6 sequence (P24387 whole entry): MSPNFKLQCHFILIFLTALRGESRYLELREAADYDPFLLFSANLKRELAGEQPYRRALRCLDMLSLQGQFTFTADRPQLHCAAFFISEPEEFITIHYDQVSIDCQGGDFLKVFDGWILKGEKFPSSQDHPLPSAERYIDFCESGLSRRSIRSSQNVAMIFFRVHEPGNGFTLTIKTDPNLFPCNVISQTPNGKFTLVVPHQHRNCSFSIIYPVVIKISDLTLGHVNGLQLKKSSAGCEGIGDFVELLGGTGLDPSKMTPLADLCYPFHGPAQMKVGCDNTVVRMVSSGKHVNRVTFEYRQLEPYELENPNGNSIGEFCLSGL

[10] = target: T5, Polyadenylate-binding protein 1; experiment: PABP1 MLLE–PAM2 interaction inhibitors, dose response, miRNA deadenylation inhibitor project, biochemical, fluorescence polarization, Cy5-PAM2 peptide, secondary (AID 602260); type: functional; conditions: read-out: IC50_Mean
[11] = target: T6, Corticotropin-releasing factor receptor 2/Corticotropin-releasing factor-binding protein; experiment: Dose Response confirmation of uHTS hits for small molecule antagonists of the CRF-binding protein and CRF-R2 receptor complex.; type: functional; conditions: read-out: IC50_Mean
[12] = cytotoxicity toward DRD oncogenic fibroblasts, dose response, cell-based, non-viral oncogenic, luminescence (AID 1934); type: functional; conditions: Homo sapiens
BJ [13] = experiment: cytotoxicity toward BJ-TERT-LT-ST fibroblasts, dose response, cell-based, RAS-independent, luminescence (AID 1935); type: functional; conditions: Homo sapiens;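 also: BJ fibroblasts immortalized with TERT plus LT and ST oncogenes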
BJ [14] = experiment: cytotoxicity toward BJ-TERT fibroblasts, dose response, cell-based, RAS-independent, luminescence (AID 1933); type: functional; conditions: Homo sapiens
BJ [15] = experiment: cells; type: functional, cell-based; conditions: Homo sapiens
Paired box protein Pax-8 = Paired box protein Pax-8 (Homo sapiens, UniProt Q06710); experiment: inhibitors of PAX8-driven TPO luciferase reporter, dose response, RMG-I cells, cherry-pick (AID 687027); type: functional, cell-based;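 also: luciferase reporter driven by Pax8 target thyroperoxidase promoter measured by SteadyGlo luminescence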
Chain of Paired box protein Pax-8 (Q06710 whole entry): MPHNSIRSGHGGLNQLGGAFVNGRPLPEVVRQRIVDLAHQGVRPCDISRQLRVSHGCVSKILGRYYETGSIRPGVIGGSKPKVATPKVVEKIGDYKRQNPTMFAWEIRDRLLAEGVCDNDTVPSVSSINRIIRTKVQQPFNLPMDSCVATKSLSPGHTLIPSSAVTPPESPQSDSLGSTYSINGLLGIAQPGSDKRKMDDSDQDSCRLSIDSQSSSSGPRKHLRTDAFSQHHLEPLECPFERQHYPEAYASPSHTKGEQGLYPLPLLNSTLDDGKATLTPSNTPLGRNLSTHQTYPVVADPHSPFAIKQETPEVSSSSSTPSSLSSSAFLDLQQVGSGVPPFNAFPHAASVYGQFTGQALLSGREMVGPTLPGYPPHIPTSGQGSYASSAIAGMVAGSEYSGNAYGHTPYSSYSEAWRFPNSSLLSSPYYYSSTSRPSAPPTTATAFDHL

T5 sequence (P11940 whole entry): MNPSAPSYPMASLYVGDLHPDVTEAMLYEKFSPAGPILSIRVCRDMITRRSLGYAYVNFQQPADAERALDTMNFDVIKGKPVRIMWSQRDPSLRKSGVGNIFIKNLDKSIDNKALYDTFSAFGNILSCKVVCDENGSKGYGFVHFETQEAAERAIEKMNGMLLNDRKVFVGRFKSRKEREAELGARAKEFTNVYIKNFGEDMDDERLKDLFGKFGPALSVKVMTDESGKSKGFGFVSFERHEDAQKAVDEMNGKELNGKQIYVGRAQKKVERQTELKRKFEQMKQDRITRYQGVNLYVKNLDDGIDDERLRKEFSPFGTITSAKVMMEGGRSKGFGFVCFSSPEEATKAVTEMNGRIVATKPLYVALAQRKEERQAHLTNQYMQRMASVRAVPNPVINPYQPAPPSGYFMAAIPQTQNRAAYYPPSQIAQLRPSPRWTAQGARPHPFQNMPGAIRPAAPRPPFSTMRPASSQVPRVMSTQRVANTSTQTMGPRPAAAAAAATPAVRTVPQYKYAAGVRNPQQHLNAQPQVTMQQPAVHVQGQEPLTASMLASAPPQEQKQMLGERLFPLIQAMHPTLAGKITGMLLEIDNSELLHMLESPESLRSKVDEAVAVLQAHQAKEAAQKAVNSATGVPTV

O=C(O)CCc1ccc(-c2cccs2)n1-c1ccc(C(=O)O)cc1
EC50 [1]: > 300 µM (not active) | EC50 [2]: > 300 µM (not active)

Cc1ccc(NC(=S)NC(=O)C2CC2)c(C)c1
IC50 (Protein skinhead-1): > 100 µM (inactive)

N=c1c(S(=O)(=O)c2ccc(Cl)cc2)cc2c(=O)n3ccccc3nc2n1CCc1ccccc1
EC50 [3]: 0.377 µM (active) | EC50 [4]: > 60 µM (not active) | EC50 [1]: > 300 µM (inconclusive) | EC50 [2]: 1.39 µM (active)

CC(C)(C)OC(=O)NCCCCC1=CC2=CC(=O)C(C)(OC(=O)c3cnc4ccccc4n3)C(=O)C2=CO1 (configuration not stated)
EC50 [1]: 17.2 µM (active) | EC50 [2]: 15 µM (active)

O=C1c2ccccc2C(=O)N1Nc1ccc([N+](=O)[O-])cc1[N+](=O)[O-]
IC50 [5]: 16.9 µM (active)

CCC1(C)Cc2ccccc2-c2nc(NCCO)n(-c3ccc(C)cc3)c(=O)c21 (configuration not stated)
EC50 [6]: > 120 µM (not active) | EC50 [7]: > 120 µM (not active) | IC50 (Protein skinhead-1): > 100 µM (inactive) | EC50 (H4): > 120 µM (not active)

CN(C(=O)CN1C(=O)/C(=C/c2ccccc2Cl)SC1=S)C1CCS(=O)(=O)C1 (configuration not stated)
IC50 [8]: > 66 µM (inactive) | EC50 [9]: > 53 µM (inactive) | IC50 [10]: > 66 µM (inactive) | IC50 [11]: > 47.1 µM (inactive)

c1ccc(-c2cn3c(n2)-c2ccccc2C3)cc1
EC50 [12]: 11.6 µM (active) | EC50 (BJ [13]): > 150 µM (inconclusive) | EC50 (BJ [14]): 14.9 µM (active) | EC50 (BJ [15]): 14.3 µM (active)

CC(C)(C)OC(=O)NCCCC1=CC2=CC(=O)C(C)(OC(=O)c3ccc(Cl)nc3)C(=O)C2=CO1 (configuration not stated)
EC50 [1]: 17.2 µM (active) | EC50 [2]: 20 µM (active)

Cc1cc(C)c(NC(=O)COC(=O)C2CCN(c3ccc(C(F)(F)F)cn3)CC2)c(Cl)c1
IC50 (Protein skinhead-1): > 100 µM (inactive)

C[C@H]1CCCCO[C@@H](CN(C)C(=O)NC2CCCCC2)[C@@H](C)CN([C@@H](C)CO)C(=O)c2cc(NC(=O)Nc3ccc(C(F)(F)F)cc3)ccc2O1
AC50 (Paired box protein Pax-8): 2.54 µM (active)

CCOc1ccc(C(=O)Nc2ccc(NC(=O)c3ccccc3)c(C)c2)cc1[N+](=O)[O-]
IC50 [5]: 5.03 µM (active)
